One data set concerns HUVECs. Kind of data set: Endothelial cell proliferation (CellTiter 96 AQueous One). Particulars: for change of VEGF-induced proliferation: delphinidin 10 μg/ml + VEGF 10 ng/ml; for change of rate of basal proliferation: delphinidin 10 μg/ml, 1% human serum. Type of data set: cell-based, human. The protocol:
HUVECs (12,000 cells per well) were seeded on 24-multiwell plates, or in the case of VEGFR2 studies HUVECs (10000 cells per well) were seeded on 96-multiwell plates, in high serum culture medium and allowed to attach for 4–5 h. The 20% serum medium was then replaced by 1% HS medium. After 24 h incubation, medium was removed and replaced with 500 μl /well or 280 μl/well (for VEGFR2 studies) of 1% HS medium containing tested substances. Cells were pre-treated with or without a MEK1/2 MAP kinase inhibitor (U-0126, 10 μM) or a PI3 kinase inhibitor (LY-294002, 10 μM), then treated with or without 10 ng/ml of VEGF, in presence or in absence of 10 μg/ml delphinidin. Cells were allowed to proliferate for 3 days and HUVEC proliferation was determined at 24 h, 48 h, and 72 h by a colorimetric assay using the ‘CellTiter 96 AQeous One Solution Cell Proliferation Assay’ from Promega.
Cells were pre-treated with or without a VEGFR2 specific inhibitor (Ki8751, 10 nM), then treated with or without 10 ng /ml in presence or absence of 10 μg/ml delphinidin. Cells were allowed to proliferate for 2 days and HUVECs proliferation was determined at 24 h and 48 h by a colorimetric assay using the ‘CellTiter 96 AQeous One Solution Cell proliferation Assay’ from Promega.

For data set [1], the system named is VEGFR2. Description: VEGFR2 expression and phosphorylation in B16-F10 cells (Western blot). The class given is cell-based, mouse. The protocol:
(§1) HUVECs and B16-F10 cells were treated with delphinidin (10 μg/ml) for 3 h and then incubated without or with VEGF (10 ng/ml) for 30 min for VEGFR2 phosphorylation or 24 h for VEGFR2 expression. Then, the cells were […], washed twice with PBS and trypsinized. The cells were lysed with RIPA buffer freshly in presence of protease inhibitor. Cells were allowed to lyse for 45 min on ice and centrifuged at 15000 g for 15 min at 4°C. The supernatant was […], and protein concentrations in the supernatant were determined by protein assay.
(§2) The proteins (30 μg) were separated on 10% sodium dodecyl sulfate-polyacrylamide gel electrophoresis (SDS-PAGE) and transferred on the nitrocellulose membranes. The membranes were incubated with anti-VEGFR2 or anti-pVEGFR2. The anti-β-actin (Sigma-Aldrich) was used to visualize protein gel loading. The membranes were then incubated with appropriate HRP-conjugated secondary antibody. The protein-antibody complexes were detected by chemiluminescence using the Western Blotting Luminol reagent kit (Santa Cruz Biotechnology®).
(In general: A western blot detects proteins with antibodies after separation by electrophoresis.)

The next data set deals with B16-F10 melanoma cells. Kind of data set: Melanoma cell proliferation (CyQUANT). Type of data set: cell-based, mouse. Particulars: 24, 48 and 72 h. The protocol:
B16-F10 (5,000 cells per well) were seeded on 96-multiwell plates in completed medium and allowed to attach overnight. […] Proliferation was determined at 24 h, 48 h and 72 h by a fluorimetric assay using the CyQUANT Cell Proliferation Assay Kit (Molecular Probes, Eugene, OR). After growth medium removal, dye-binding solution was added into each microplate well and cells were incubated at 37°C for 45 minutes. The fluorescence levels were read on a fluorescent microplate reader (Synergy HT, Biotek, Winooski, VT) with filters for 485 nm excitation and 530 nm emission.

For data set [2], the system named is VEGFR2. Description: VEGFR2 expression and phosphorylation in HUVECs (Western blot). The class given is cell-based, human. The protocol: as §1, §2
For the next data set, the system named is CREB. Kind of data set: CREB phosphorylation in HUVECs (Western blot). Type of data set: cell-based, human. Particulars: 30 min. The protocol:
(§3) HUVECs (9,000 cells per dish of 3.5 cm diameter) were seeded on petri dishes in high serum culture medium and allowed to attach for 4–5 h. The 20% serum medium was then replaced by 1% HS medium. […] Appropriate quantities of extracted proteins were resolved in a SDS-10% polyacrylamide gel and electro transferred onto PVDF membranes, as described previously. […] Immobilized antigens were detected by chemiluminescence using HRP-conjugates as secondary antibodies (1/60,000), an ECL assay kit and autoradiography films. Autoradiography signals were captured on a GeneGenius Bio Imaging System (Syngene) using the GeneSnap software and analyzed using the GeneTools software. […] Immobilized antigens were detected as described above.

A further data set has as its target T1, PDE5 (Bos taurus, UniProt Q28156).
T1 construct: isolated by anion-exchange chromatography from bovine aortic smooth muscle cytosolic fraction; from tissue; host or cells: bovine aortic smooth muscle, cytosolic fraction
Description: Purified PDE radio-enzymatic assay, PDE5. Type of data set: biochemical, bovine. The note with it: substrate 1 μM cGMP; preliminarily reported in ref 26. Here is the method:
(§4) PDE1, PDE3, PDE4 and PDE5 were isolated by anion-exchange chromatography from bovine aortic smooth muscle cytosolic fraction as previously described. PDE2 was isolated from human platelets. Purified PDEs were stored as aliquots at -80°C until use. PDE activity was determined by a radio-enzymatic assay as described previously. The concentration of delphinidin that produced 50% inhibition (IC50) of substrate hydrolysis (determined at 1μM cAMP or cGMP) was calculated by non-linear regression analysis (GraphPad Prism, San Diego, CA) of concentration-response curves performed with 1–300 μM of delphinidin and included 6 different concentrations of delphinidin.

Data set [3] in a line: Mouse weight during xenograft experiment. Type of data set: in vivo. The note with it: 10 mg/kg i.p. once a week for 3 weeks; over 30 days; vs non-treated mice. Here is the method: (§5) Two groups of 7 male C57BL/6N mice were used at 6 weeks old for tumor induction. The experimental protocol is illustrated on in Fig 1A. Before any treatments, mouse weights were registered on day 1 (D1). On the following day (D2), all mice were subcutaneously injected on the ventral side near each hindleg with B16-F10 melanoma cells (25x10^4 cells in 100 μl of 0.9% NaCl). The seventh day after tumor cell inoculation (D9), mice were treated by i.p. injection (100 μl/10 g mice) with either drug solvent (1% ethanol) or 10 mg delphinidin/kg. Delphinidin as well as solvent injections were repeated twice at 7-day intervals (D16 and D23). Then, seven days later (D30) after pentobarbital anesthesia, mice were sacrificed by cervical dislocation and tumors were dissected and weighted.

In data set [4] the test system is B16-F10 melanoma cell xenograft. Description: Tumor growth induced by B16-F10 melanoma cell xenograft in mice. Type of data set: in vivo, mouse. The note with it: 10 mg/kg i.p. once a week for 3 weeks; 30th day; vs vehicle-treated mice. Here is the method: as §5
A further data set deals with human NSCLC cells. Also on record: method as in PMID 24124611. Particulars: athymic nude mice subcutaneously implanted with human NSCLC cells; vs control mice; cited from earlier work.
In the next data set the test system is ATF1. Kind of data set: ATF1 phosphorylation in HUVECs (Western blot). Particulars: delphinidin 10 μg/ml, 30 min. The class given is cell-based, human. Here is the method: as §3
For the next data set, the system named is PDE4. Kind of data set: Purified PDE radio-enzymatic assay, PDE4. The class given is biochemical, bovine. The note with it: substrate 1 μM cAMP; preliminarily reported in ref 26. The protocol: as §4
In the next data set the test system is PDE1. Description: Purified PDE radio-enzymatic assay, PDE1. Type of data set: biochemical, bovine. The note with it: substrate 1 μM cGMP, preliminarily reported in ref 26. The protocol:
as §4

The target in the next data set is T2, PDE2 (Homo sapiens, UniProt O00408).
T2 construct: PDE2 was isolated from human platelets; from tissue; host or cells: human platelets
Kind of data set: Purified PDE radio-enzymatic assay, PDE2. Type of data set: biochemical. Particulars: substrate 1 μM cAMP, preliminarily reported in ref 26. The protocol:
as §4

In a further data set the test system is p38 MAP kinase. Description: p38 MAP kinase activation in HUVECs (Western blot). The class given is cell-based, human. Particulars: delphinidin 10 μg/ml; 30 min. The protocol: as §3

Where “and” joins values, the source holds several entries; their conditions need not be identical. Identical values can stand only once.

Results on 5 compounds are retold here after PMC4687871, “Delphinidin Inhibits Tumor Growth by Acting on VEGF Signalling in Endothelial Cells” (PLoS ONE, 2015).

T2 sequence (O00408 whole entry): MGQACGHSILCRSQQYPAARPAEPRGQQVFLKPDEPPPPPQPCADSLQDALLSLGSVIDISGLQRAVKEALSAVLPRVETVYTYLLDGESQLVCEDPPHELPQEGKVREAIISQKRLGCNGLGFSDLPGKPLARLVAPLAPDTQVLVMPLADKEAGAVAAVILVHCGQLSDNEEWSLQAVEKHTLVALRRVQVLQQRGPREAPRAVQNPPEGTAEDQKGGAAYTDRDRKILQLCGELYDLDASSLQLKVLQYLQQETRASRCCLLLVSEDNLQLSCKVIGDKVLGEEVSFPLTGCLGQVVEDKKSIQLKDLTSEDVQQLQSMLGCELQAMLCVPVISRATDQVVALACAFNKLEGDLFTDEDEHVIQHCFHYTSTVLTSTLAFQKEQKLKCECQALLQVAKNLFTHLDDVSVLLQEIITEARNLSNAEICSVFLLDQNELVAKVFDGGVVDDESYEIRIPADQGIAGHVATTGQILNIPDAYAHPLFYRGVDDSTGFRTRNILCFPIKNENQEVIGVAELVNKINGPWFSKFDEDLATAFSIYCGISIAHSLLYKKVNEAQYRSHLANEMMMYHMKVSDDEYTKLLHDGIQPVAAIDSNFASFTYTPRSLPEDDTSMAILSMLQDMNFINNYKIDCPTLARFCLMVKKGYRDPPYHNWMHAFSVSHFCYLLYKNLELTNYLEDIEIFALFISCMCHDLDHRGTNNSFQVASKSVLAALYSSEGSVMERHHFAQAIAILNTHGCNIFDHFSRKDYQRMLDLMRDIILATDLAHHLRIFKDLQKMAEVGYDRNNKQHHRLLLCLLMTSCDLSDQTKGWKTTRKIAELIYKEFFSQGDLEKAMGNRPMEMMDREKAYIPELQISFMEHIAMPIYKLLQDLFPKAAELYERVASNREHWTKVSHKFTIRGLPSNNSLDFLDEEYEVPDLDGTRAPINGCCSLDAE

Regarding `O=c1cc(N2CCOCC2)oc2c(-c3ccccc3)cccc12` [LY-294002, 2-(4-Morpholinyl)-8-phenyl-4H-1-benzopyran-4-one, reference compound], the “effect on the inhibitory effect of delphinidin on basal proliferation” value in the data set with HUVECs (LY-294002 10 μM + delphinidin 10 μg/ml) is on record as “completely blunted”. The “increase of basal proliferation” value with HUVECs (LY-294002 10 μM, 72 h) is reported as “not at 72 h”.
For VEGF, the VEGFR2 expression entry with VEGFR2 [1] (VEGF 10 ng/ml) was “did not modify”; in the data set on VEGFR2 [2] (VEGF 10 ng/ml 24 h) it was “increased”. The VEGFR2 phosphorylation result with VEGFR2 [1] (VEGF 10 ng/ml 30 min) and with VEGFR2 [2] (VEGF 10 ng/ml 30 min) was “increased” each time. Also, the “B16-F10 melanoma cell proliferation” value in the data set with B16-F10 melanoma cells (VEGF 10 ng/ml) is “not able increase”. Moreover, the “increase of CREB phosphorylation” value with CREB (VEGF 10 ng/ml) is reported as “+484%”.
Turning to `N#CC(=C(N)Sc1ccccc1N)C(C#N)=C(N)Sc1ccccc1N` [U-0126, 1,4-diamino-2,3-dicyano-1,4-bis(2-aminophenylthio)-butadiene, reference compound], in the data set with HUVECs (U-0126 10 μM + VEGF 10 ng/ml, 72 h, n.s. vs control), the “proliferation rate (% of control)” value turned out to be 131%. For the same compound, the “effect on the inhibitory effect of delphinidin on basal proliferation” value with HUVECs (U-0126 10 μM + delphinidin 10 μg/ml) is “reversed to some extent closer to basal level”.
With `COc1cc2nccc(Oc3ccc(NC(=O)Nc4ccc(F)cc4F)c(F)c3)c2cc1OC` [Ki8751, reference compound], the “ability of VEGF to increase endothelial cell proliferation” value in the data set on HUVECs (Ki8751 10 nM + VEGF, 24 and 48 h) is on record as “completely abolished”.
By IC50 is commonly meant the concentration needed to halve the response being measured. Low values mean inhibition by little substance, high ones a need for much substance. As for `Oc1cc(O)c2cc(O)c(-c3cc(O)c(O)c(O)c3)[o+]c2c1` [delphinidin, Delphinidin], the IC50 against PDE5 is 49.5 µM and 44 µM; in the data set with PDE4, 109 ± 12 µM; with PDE1 (+CaM/Ca) it was 15 ± 3 µM; in the data set with PDE1 (no regulator), 33 ± 6 µM; at PDE2 (+5μM cGMP), 19.8 µM and 18 µM; at PDE2 (no regulator), 115 µM and 103 µM. In addition, the “change of VEGF-induced proliferation” value with HUVECs (24 h) was -56%; with HUVECs (48 h) it was -85%; in the data set with HUVECs (72 h) it was -130%. For the same compound, the “change of rate of basal proliferation” value is reported as -52% in the data set with HUVECs (24 h), -66% with HUVECs (48 h) and -70% with HUVECs (72 h). Further, in the data set on VEGFR2 [1] (delphinidin 10 μg/ml 3 h, then VEGF 30 min), the “VEGF-dependent VEGFR2 phosphorylation” value is recorded as “inhibited”. The B16-F10 proliferation result with B16-F10 melanoma cells (delphinidin 10 μg/ml) is given as “did not inhibit”. Moreover, in data set [3], the “mouse weight as a percent of the starting weight” value was “unchanged”. In addition, in the data set with VEGFR2 [2] (delphinidin 10 μg/ml 3 h, then VEGF 10 ng/ml 30 min), the “ability of VEGF in increasing VEGFR2 phosphorylation” value is reported as “completely prevented”. Further, the “ability of VEGF in increasing VEGFR2 expression” value with VEGFR2 [2] (delphinidin 10 μg/ml 3 h, then VEGF 10 ng/ml 24 h) was “completely prevented”. For the same compound, the VEGFR2 expression result in the data set with VEGFR2 [2] (delphinidin 10 μg/ml alone) is recorded as “no effect”. Also, in the data set with VEGFR2 [2] (delphinidin 10 μg/ml alone), the VEGFR2 phosphorylation entry is reported as “no effect”. Further, the “decrease of tumor weight” value in [4] came out at 83%. Also, in the data set with human NSCLC cells, the tumor growth result is “significant inhibition”. The “phosphorylation of ATF1” value with ATF1 (after stimulation by VEGF 10 ng/ml) and in the data set with ATF1 (control conditions) was “abolished” in each case. For the same compound, the “IC50 PDE4” value in the data set with PDE4 stood at 37 ± 4 µg/mL. The “IC50 PDE1” value is 5 ± 1 µg/mL with PDE1 (+CaM/Ca) and 11 ± 2 µg/mL in the data set on PDE1 (no regulator). In addition, in the data set on p38 MAP kinase, the “basal p38 MAP kinase activation” value is on record as “did not affect”. In the data set with CREB (delphinidin 10 μg/ml + VEGF 10 ng/ml), the “increase of CREB phosphorylation induced by VEGF” value is listed as “completely prevented”. Besides, in the data set with CREB (delphinidin 10 μg/ml alone), the CREB phosphorylation entry is “no significant effect”.
